Measured values published in ChEMBL document CHEMBL1157539, “Thousands of chemical starting points for antimalarial lead identification” (Nature, 2010).

Tested on: Plasmodium falciparum
Experiment: GSK_TCMDC: Inhibition of Plasmodium falciparum 3D7 in whole erythrocytes, using parasite LDH activity as an index of growth.
Assay type: functional, organism-based
Conditions: Plasmodium falciparum, 3D7

| SMILES | XC50 |
| --- | --- |
| Cc1ccc2c(N/N=C/c3ccccc3[N+](=O)[O-])cc(C)nc2c1 | 0.416 µM |
| CCN(CC)CCN(Cc1ccc(-c2ccc(C(F)(F)F)cc2)cc1)C(=O)Cn1c(CCc2cccc(F)c2F)c(C)c(=O)c2ccccc21 | 0.942 µM |
| CC(C)C[C@@H]1C(=O)N[C@H](C2Cc3ccccc3C2)C(=O)N1[C@@H](C(=O)O)c1ccc(F)cc1F | 0.836 µM |
| O=C(/C=C/c1ccc(Cl)c(Cl)c1)NCCCCCN1CCC(c2c[nH]c3ccccc23)CC1 | 0.781 µM |
| C#CCN(Cc1ccc2[nH]c(N)nc(=O)c2c1)c1ccc(C(=O)N[C@@H](CCC(=O)O)C(=O)O)cc1 | 0.217 µM |
| Cc1ccc(C2=NNC3(S2)C(=O)Nc2ccc(C)cc23)cc1 (stereo unspecified) | 1.02 µM |
| CN(C)CCNC(=O)c1csc(Nc2ccc(Cl)c(Cl)c2)n1 | 0.225 µM |
| COCCCC1C(=O)OC2CCCC21 (stereo unspecified) | 0.699 µM |
| Cc1ncc([N+](=O)[O-])n1CCOC(=O)NC(NCC1COc2ccccc2O1)C(Cl)(Cl)Cl (stereo unspecified) | 0.223 µM |
| O=C(Nc1ccc(C(F)(F)F)cc1)c1ccc(NCCCN2CCCCCC2)c([N+](=O)[O-])c1 | 0.315 µM |
| CCCN(CC1CC1)c1ncc(-c2cccc(CNCCC3CCCN3C)c2)cn1 (stereo unspecified) | 0.749 µM |
| Cc1cc(-c2ccc(O)c(CNC3CCCCC3)c2)cnc1N | 0.203 µM |
| CCn1cc(CN2CCCC(C(=O)Nc3ccc(-c4nc5ccccc5[nH]4)cc3)C2)cn1 (stereo unspecified) | 0.927 µM |
| CCOc1cc(N)c2nc3ccc([N+](=O)[O-])cc3cc2c1 | 0.145 µM |
| Cc1cccc(CNc2nc(C)cc(N[C@@H](Cc3ccccc3)C(=O)NC3CCCC3)n2)c1 | 0.653 µM |
| COc1ccc2c(=NN=Cc3ccccc3)cc(C)[nH]c2c1 | 0.846 µM |
| CCCCCCCN1CC[C@@H](CCCc2ccnc3ccc(OCCCCN/C(N)=N/O)cc23)[C@@H](CC)C1 | 0.952 µM |
| N=C(N)NN=CC(=O)Nc1ccc(Cl)cc1 | 0.814 µM |
| O=C1Nc2ccccc2/C1=N/NC(=S)N1CCOCC1 | 0.91 µM |
| COc1ccccc1CNc1ccnc(NCCc2cccc(C(F)(F)F)c2)n1 | 0.925 µM |
| OCCN1CCN(Cc2ccc(-c3ccc(-c4nc5cc(F)ccc5[nH]4)cc3)cc2)CC1 | 0.567 µM |
| O=c1cc(NCCCNCc2cccc(I)c2)[nH]c2ccccc12 | 1.02 µM |
| COc1ccc2[nH]ccc(=NN=Cc3ccncc3)c2c1 | 0.584 µM |
| CCOc1cc(C(=O)NCCN(CC)c2cccc(C)c2)ccc1-c1nc2cc(Cl)ccc2[nH]1 | 0.809 µM |
| COc1cc2ncnc(Nc3ccc(Br)c(Cl)c3)c2cc1OC | 0.718 µM |
| COc1ccc2ncc(Cl)c(N3CCC(CCNCc4ccc5c(n4)NC(=O)CS5)CC3)c2c1 | 0.961 µM |

| SMILES | XC50 |
| --- | --- |
| CN(C)c1ccc(CN2CCC(NC(=O)c3ccc(-c4cccc(Cl)c4)s3)CC2)cc1 | 0.924 µM |
| Cc1cc(N(C)CCCN(C)C)nc(Nc2ccc(Cl)cc2)n1 | 1.02 µM |
| CCOC(=O)c1ccc(NC(=O)NCCCC2CCCN(CCCCCNC(=O)/C=C/c3ccc(Cl)c(Cl)c3)C2)cc1 (stereo unspecified) | 0.855 µM |
| CCCCNc1cc(C)nc(NCc2ccccc2)n1 | 0.975 µM |
| CC(C)C(NC(=O)c1c(F)cccc1F)C(=O)Nc1ccc(Cc2nc3ccccc3s2)cc1 (stereo unspecified) | 0.448 µM |
| CSc1ccc(NC(=O)Nc2cc(C)nc3ccccc23)cc1Br | 0.778 µM |
| O=C(Nc1cccc(OC2CCN(Cc3ccc(F)cc3)CC2)c1)c1ccc(C(F)(F)F)cc1 | 0.952 µM |
| FC(F)(F)c1ccc(CNCC2CCN(Cc3ccc4c(c3)OCO4)CC2)cc1 | 1.36 µM |
| N#Cc1cccc(C(O)C2CN(CCC3CCCCC3)CCC2(O)c2ccccc2)c1 (stereo unspecified) | 0.129 µM |
| CCN(CC)C(=S)N/N=C1/C(=O)Nc2c(C)cccc21 | 0.863 µM |
| O=C(NOCCOc1ccccc1)c1ccccc1 | 0.317 µM |
| COc1ccc(Cl)cc1NC(=O)C(C)Nc1ccc(-c2ccccc2)cc1 (stereo unspecified) | 0.556 µM |
| CN(C)CCCNc1ncnc2c1[nH]c1ccc(Br)cc12 | 0.319 µM |
| CC(=O)c1ccc(-c2ccc(C(=O)NCCCCN3CCC(c4ccc5c(c4O)CCCC5)CC3)cc2)cc1 | 0.762 µM |
| CC(Cc1ccc(SCCSc2ccccc2)cc1)NCC(O)c1cccc(Cl)c1 (stereo unspecified) | 0.367 µM |
| CCOc1ccc2c(c1)N(C(=O)C=Cc1ccccc1)C(C)(C)c1ssc(=S)c1-2 | 1.15 µM |
| O=C(/C=C/c1ccc(Cl)c(Cl)c1)NCCCCN1CCCN(C(=O)Nc2ccc(C(F)(F)F)cc2)CC1 | 0.847 µM |
| CC(Cl)=CCc1c(C)nc2c(ccc3ccccc32)c1O | 0.198 µM |
| CSc1cccc(Nc2nc3ccc(S(=O)(=O)NC(C)C(C)C)cc3n2[C@H](C)C(C)(C)C)c1 (stereo partly specified) | 0.446 µM |
| CCOc1cc2ncnc(Nc3ccc(OCc4ccccc4F)c(Cl)c3)c2cc1OCC | 0.601 µM |
| COc1ccc(-c2cnc3ccc(NC4CCC(O)CC4)nn23)cn1 (stereo unspecified) | 0.715 µM |
| CC(C)(CNCc1cccc(Oc2ccccc2)c1)c1nc(-c2ccnc(N)n2)c(-c2ccc(Cl)c(O)c2)[nH]1 | 0.76 µM |
| COc1c(C2CCN(CCCCNC(=O)c3ccc(-c4ccc(C(=O)C(F)(F)F)cc4)cc3)CC2)ccc2c1CCCC2 | 1.1 µM |
| CC(C)(C)c1ccc(CN2CCC(NC(=O)c3ccc(-c4ccccc4F)s3)CC2)cc1 | 1.2 µM |
| COc1ccc2c(CNCCCCCCNCc3c(OC)ccc4cc(OC)ccc34)c(OC)ccc2c1 | 0.56 µM |
| CCCCCN1CCC(NC(=O)c2ccc(C(=O)Nc3ccc(C(C)C)cc3)cc2)C1 (stereo unspecified) | 0.954 µM |

| SMILES | XC50 |
| --- | --- |
| COc1cc(C(=O)NC2CCC(CN3CCC(c4c[nH]c5ccccc45)CC3)CC2)cc(Cl)n1 (stereo unspecified) | 0.688 µM |
| N#Cc1cccc(/C=C/C(=O)NC2CCC(CCN3CCc4ccc(-c5cnccn5)cc4CC3)CC2)c1 (stereo unspecified) | 0.773 µM |
| OC1CCC(Nc2ccc3ncc(-c4ccc5ccccc5c4)n3n2)CC1 (stereo unspecified) | 0.978 µM |
| CCN(CCCN1CCCCC1)c1cc(C)nc(Nc2cccc(C(F)(F)F)c2C)n1 | 0.609 µM |
| CCCCN(CCCC)Cc1cc(N(C)c2ccc([N+](=O)[O-])cn2)ccc1O | 0.544 µM |
| Cc1ccccc1C1CCN(C2CCC(NC(=O)/C=C/c3cc(F)ccc3F)CC2)CC1 (stereo unspecified) | 1.04 µM |
| Cc1ccc(-c2cccc3c(NC(=O)Nc4ccc5nccc(N6CCN(C)CC6)c5c4)cccc23)cn1 | 0.352 µM |
| O=C(NC1CCN(CC2(c3ccccc3)CCCC2)CC1)c1n[nH]cc1Cl | 1.04 µM |
| CCN(CC)CCCNc1cc[n+]([O-])c2cc3ccccc3cc12 | 0.871 µM |
| COc1cc(C)nc2ccc(NC(=O)COCC(=O)Nc3ccc4nc(C)cc(OC)c4c3)cc12 | 0.917 µM |
| COc1ccc2c(c1)OC(C)(C)CC2=NOS(=O)(=O)c1ccc(C)cc1 | 0.208 µM |
| CCNCc1ccc(-c2cccc(-c3nc4ccccc4[nH]3)c2)cc1 | 0.55 µM |
| CCOc1ccc(-c2nc3cc(-c4nc5cc(N6CCN(C)CC6)ccc5[nH]4)ccc3[nH]2)cc1 | 0.108 µM |
| COc1cccc(Nc2nc(C)cc(NC3CCN(Cc4ccccc4)CC3)n2)c1 | 0.693 µM |
| COc1ccc(Cn2c(Nc3cccc(C(F)(F)F)c3)nc3cc(C(=O)NC(C)C)cnc32)cc1Cl | 0.973 µM |
| CC(Cc1ccc(CN2CCN(Cc3ccccc3)CC2)cc1)NCC(O)c1cccc(C(F)(F)F)c1 (stereo unspecified) | 0.893 µM |
| Cc1ccccc1CNC(=O)Nc1cccc(-c2csc(NC(=N)N)n2)c1 | 0.7 µM |
| Cc1cc(N(C)C)nc(Nc2ccc(NC(=O)c3ccccc3C)cc2)n1 | 1.13 µM |
| CCCN(Cc1nnc(-c2ccco2)o1)C(=O)C1CCN(c2ncc(C(F)(F)F)cc2Cl)CC1 | 0.691 µM |
| Cc1cc(N)nc2ccc(CNCCc3ccccc3Br)cc12 | 0.12 µM |
| CCOc1ccc(-c2nc(NC(=O)CS(=O)(=O)c3ccccc3)sc2C)cc1 | 0.51 µM |
| COc1ccc2nccc([C@@H](O)CN3CCC(NCc4ccc5c(c4)sc(=O)n5C)CC3)c2c1 | 0.258 µM |
| O=C(N[C@H]1CCN(Cc2ccc(OCCN3CCNCC3)c3ccccc23)C1)c1ccc(Cl)c(Cl)c1 | 0.748 µM |
| Oc1ccc(Nc2nc(N3CCCC3)c3ccccc3n2)cc1 | 0.27 µM |
| COc1ccccc1NC(=O)OC(COc1ccc(N)cc1)CN1CC=C(c2ccccc2)CC1 (stereo unspecified) | 1.04 µM |
| CCc1c(C(=O)NC2CCC(N3CCC(c4ccccc4OC)CC3)CC2)[nH]c2ccc(OC)cc12 (stereo unspecified) | 1.11 µM |

| SMILES | XC50 |
| --- | --- |
| CC(C)(CNCc1ccc(Cl)c(Cl)c1)c1nc(-c2ccc(Cl)c(O)c2)c(-c2ccncc2)[nH]1 | 0.757 µM |
| COc1ccc(/C=C/C(=O)NCCCCCN2CCC(c3c[nH]c4ccccc34)CC2)cc1O | 0.957 µM |
| Cc1nc(-c2cccc(Nc3nccc(NCC(O)c4ccccc4C)n3)c2)cs1 (stereo unspecified) | 0.89 µM |
| Cc1cc(NCCc2ccccc2)nc(NC(=N)Nc2cccc(Cl)c2)n1 | 0.181 µM |
| COc1ccc(OCCON)cc1 | 0.201 µM |
| Fc1ccc2[nH]cc(CCNCc3ccc(-c4cccc(-c5nc6ccccc6[nH]5)c4)cc3)c2c1 | 0.174 µM |
| CCCS(=O)(=O)c1nc(S(=O)(=O)c2ccc(Cl)cc2)c(N2CCCCC2)s1 | 1.29 µM |
| O=C(COc1ccccc1Cl)N1CCc2cc3nccc(N4CCN5CCC[C@H]5C4)c3cc21 | 0.744 µM |
| CCOC(C(=O)OCC1CCCN1C(C)C)(c1ccccc1)c1ccccc1 (stereo unspecified) | 0.763 µM |
| O=C(Nc1ccccc1O)C1CCN(c2ncnc3cc(-c4ccc(F)cc4)sc23)CC1 | 0.874 µM |
| O=C(Nc1ccc(-c2nc3ccccc3[nH]2)cc1)c1ccc(S(=O)(=O)N2CCCCCC2)cc1 | 0.411 µM |
| O=C(Nc1cccc(-c2csc(-c3ccccc3)n2)c1)c1cccs1 | 0.8 µM |
| CO/C(=C\C=C\c1cc2cc(Cl)c(Cl)cc2[nH]1)C(=O)NCCCN1CCN(c2cccc(OCC(=O)Nc3ccccc3)c2)CC1 | 0.504 µM |
| COc1ccc2ccccc2c1C=NN=c1cc[nH]c2ccc(F)cc12 | 1.11 µM |
| COc1ccc2c(c1)CCCC2C(C)NCC(O)c1cccc(C(F)(F)F)c1 (stereo unspecified) | 0.345 µM |
| CC(=O)Nc1ccc(NC(=O)c2cc(-c3cc(Cl)ccc3O)n[nH]2)cc1 | 0.176 µM |
| COc1cc(Nc2nccc(-c3c(-c4cccc(NC(=O)c5c(F)cccc5F)c4)nn4ccccc34)n2)cc(OC)c1OC | 0.0773 µM |
| CC(=O)Nc1ccc(C(=O)Nc2cccc(-c3ccc(-c4nc5cc(F)ccc5[nH]4)s3)c2)cn1 | 0.233 µM |
| O=[N+]([O-])c1cccc(-c2ccc(C=NNc3cc(N4CCCC4)nc(N4CCCC4)n3)o2)c1 | 0.713 µM |
| COCCNCc1cccc(-c2ccc(CN(C(=O)Nc3ccccc3)C3CCN(Cc4ccccc4)CC3)cc2)c1 | 0.773 µM |
| CCCCCCCNc1cc(C)nc2ccc(OC)cc12 | 0.671 µM |
| COc1cc(C(=O)N2CCN(C(C)C)CC2)ccc1CN(C)CCCCN1CCN(c2cccc(Cl)c2Cl)CC1 | 0.704 µM |
| Cc1cc(C(=O)CN2C(=O)NC3(CCCc4ccccc43)C2=O)c(C)n1Cc1ccco1 (stereo unspecified) | 1.1 µM |
